SMILES strings stand for the structures. The source made the active and inactive calls.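 How the source made its calls: active means Alamar Blue signal falls with dose, AC50 no more than twice the top valid dose; inconclusive means flat curve near half-strength inhibition, or poor fit; inactive means the rest.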

This passage reports AC50 and activity change, negative = inhibition results from PubChem BioAssay AID588530 (Broad Institute, 2011).

One assay deals with C. albicans CaCi-17 growth, Alamar Blue fluorescence, 48 h. The experiment in a line: growth inhibition of C. albicans isolate, confirmation, CaCi-17 isolate, Alamar Blue, cherry-pick retest (AID 588530).
Settings: not given
On to `O=C(N/N=C/c1c(O)ccc2ccccc12)c1cccc(C(F)(F)F)c1`, for which the AC50 was > 52 µM (inactive).
Still for that read-out and setting: as for `CCCCC(=O)NC(c1ccc(N(CC)CC)cc1)c1ccc2cccnc2c1O` (centres undefined), the figure is 3.73 µM; as for `Oc1c(C(c2ccc(Cl)cc2)N2CCCC2)cc(Cl)c2cccnc12` (centres undefined), 7.68 µM.
Regarding `C/C(=N\NC(=O)c1cc2ccccc2cc1O)c1ccccn1`, the AC50 was 5.02 µM.
In the case of `Cc1cc(NC(c2ccc(Cl)cc2)c2ccc3cccnc3c2O)no1` (centres undefined), the AC50 was 2.49 µM.
As for `CCN1/C(=C/C=C/c2oc3ccc(-c4ccccc4)cc3[n+]2CC)Oc2ccc(-c3ccccc3)cc21`, the AC50 was 2.43 µM.
In the case of `COc1cccc(/C=N/Nc2ncnc3scc(-c4ccccc4)c23)c1O`, the AC50 is 12.5 µM.
Turning to `CCN(CC)S(=O)(=O)c1cc(OC)ccc1N=Nc1ccc(O)c2ncccc12`, the concentration at half-maximal activity (AC50) was 15.3 µM.
As for `CCCCC(=O)NC(c1ccco1)c1cc(Cl)c2cccnc2c1O` (centres undefined), the AC50 is 24.9 µM.
On the same count and under the same terms, under `CCOC(=O)N1C(=O)C2(CCCCC2)N(c2ccc(C)cc2)C1=S` stands 1.3 µM.
Still for that read-out and setting: as for `O=C(N/N=C/c1cc2c3c(c1O)CCCN3CCC2)c1ccccc1O`, the figure is 4.28 µM; as for `Oc1c(C(Nc2nc3ccccc3s2)c2ccco2)ccc2cccnc12` (centres undefined), 3.97 µM; as for `COc1ccc(C)cc1N=Nc1ccc(O)c2ncccc12`, 2.99 µM.
On the same count and under the same terms, under `O=C(Oc1c(Cl)cc(Cl)c2cccnc12)c1ccco1` stands 1.71 µM; under `O=C(Oc1c(Cl)cc(Cl)c2cccnc12)c1cccs1`, 3.29 µM.
Take `COc1cccc(N=Nc2ccc(O)c3ncccc23)c1`: the AC50 is 3.91 µM.
As for `C=CCNC(=S)N/N=C(\C)c1ccccn1`, the AC50 was 8.96 µM.
Same read-out and setting: as for `CN1CCN(C(c2ccc(C(F)(F)F)cc2)c2cc(Cl)c3cccnc3c2O)CC1` (centres undefined), the figure is 6.34 µM; as for `O=Nc1c(-c2cccc([N+](=O)[O-])c2)nc2ncccn12`, 4.77 µM; as for `CN1CCN(C(c2ccc(C(F)(F)F)cc2)c2ccc3cccnc3c2O)CC1` (centres undefined), 8.86 µM.
Still for that read-out and setting: as for `O=[N+]([O-])c1cc(CN2CCN(c3ccccc3)CC2)c(O)c2ncccc12`, the figure is 10.6 µM; as for `CCCCCCC[n+]1ccc(-c2cc[n+](CCCCCCC)cc2)cc1`, 13.4 µM.
In the case of `Oc1ccc(N=Nc2ccc3c(c2)OCCO3)c2cccnc12`, the AC50 was 10.8 µM.
`Oc1c(CN2CCN(c3ccccc3)CC2)cc(Br)c2cccnc12`: the AC50 is > 52 µM (inactive).
Still for that read-out and setting: under `COc1cccc(N=Nc2ccc3cccnc3c2O)c1` stands 5.37 µM; under `C(C#CCCCCCCCCC[n+]1ccccc1)#CCCCCCCCCC[n+]1ccccc1`, 1.52 µM.
The same measure, in the same setting: as for `O=Cc1ccc(O)c2ncccc12`, the figure is 13.7 µM; as for `Oc1c(CN2CCN(c3ccc(F)cc3)CC2)cc(Cl)c2cccnc12`, 7.42 µM.
Take `O=c1ccc(N=Nc2ccccc2)ccc1O`: the AC50 is 4.73 µM.
The same measure, in the same setting: under `Oc1ccc(N=Nc2ccc3c(c2)OCCO3)c2ncccc12` stands > 52 µM (inactive); under `Oc1c(C(Nc2nccs2)c2ccc(C(F)(F)F)cc2)ccc2cccnc12` (centres undefined), 4.11 µM.
On the same count and under the same terms, as for `CCOc1ccc(N=Nc2ccc(O)c3ncccc23)cc1`, the figure is 11.6 µM.

Tested on in a further assay: not listed separately
Described as above. Conditions: C. albicans CaCi-17 growth, Alamar Blue fluorescence, 48 h; at 26 µM (top of the series).
Regarding `O=[N+]([O-])c1ccc(O)c(/C=N/Nc2ccc(Cl)nn2)c1`, the activity change, negative = inhibition is -23.4% (inactive).
`Cc1ccc(C(=O)c2coc3c2C(=O)C(=O)c2ccccc2-3)cc1`: the activity change, negative = inhibition is 7.03% (inactive).
